Five cell lines from the supplement of paper PMC10307832 can be followed below.

What all share (assay): relative viability (nuclei count vs DMSO), 5 days (fraction); higher = more cells survive
Compound in the assay “Imatinib + Crizotinib”: Cc1ccc(NC(=O)c2ccc(CN3CCN(C)CC3)cc2)cc1Nc1nccc(-c2cccnc2)n1 [Imatinib] + C[C@@H](Oc1cc(-c2cnn(C3CCNCC3)c2)cnc1N)c1c(Cl)ccc(F)c1Cl [Crizotinib] (partner 1 µM)
In short, it runs like this:
(§1)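 Each reported value is a median over duplicate plates. It expresses relative viability: treated-well nuclei count divided by vehicle-well nuclei count. Lung cancer cell lines in 1536-well plates were dosed by pin tool a day after seeding, alone with one drug or with a fixed anchor-drug dose plus five library-drug doses (not always all listed) in √10 steps, and nuclei were counted after 5 days.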

Compound in the assay “Imatinib + Vorinostat”: Cc1ccc(NC(=O)c2ccc(CN3CCN(C)CC3)cc2)cc1Nc1nccc(-c2cccnc2)n1 [Imatinib] + O=C(CCCCCCC(=O)Nc1ccccc1)NO [Vorinostat] (partner 1 µM)
In short, it runs like this:
as §1

Compound in the assay “Imatinib + Trametinib”: Cc1ccc(NC(=O)c2ccc(CN3CCN(C)CC3)cc2)cc1Nc1nccc(-c2cccnc2)n1 [Imatinib] + CC(=O)Nc1cccc(-n2c(=O)n(C3CC3)c(=O)c3c(Nc4ccc(I)cc4F)n(C)c(=O)c(C)c32)c1 [Trametinib] (partner 0.02 µM)
In short, it runs like this:
as §1

Compound in the assay “Imatinib + Luminespib”: Cc1ccc(NC(=O)c2ccc(CN3CCN(C)CC3)cc2)cc1Nc1nccc(-c2cccnc2)n1 [Imatinib] + CCNC(=O)c1noc(-c2cc(C(C)C)c(O)cc2O)c1-c1ccc(CN2CCOCC2)cc1 [Luminespib] (partner 0.01 µM)
In short, it runs like this:
as §1

Regarding NCI-H2405, the relative viability in the assay with Imatinib + Crizotinib (first compound 0.02 µM) was 0.917; with Imatinib + Crizotinib (first compound 0.06325 µM), 0.879; with Imatinib + Crizotinib (first compound 0.2 µM), 0.827; with Imatinib + Crizotinib (first compound 0.6325 µM), 0.772; with Imatinib + Crizotinib (first compound 2 µM), 0.843; with Imatinib + Vorinostat (first compound 0.02 µM) it was 1.06. For the same cell line, the relative viability with Imatinib + Vorinostat (first compound 0.2 µM) is 1.18; in the assay with Imatinib + Vorinostat (first compound 0.6325 µM) it was 0.942; in the assay with Imatinib + Vorinostat (first compound 2 µM), 0.961; with Imatinib + Trametinib (first compound 0.02 µM), 0.623; with Imatinib + Trametinib (first compound 0.06325 µM) it was 0.538; in the assay with Imatinib + Trametinib (first compound 0.2 µM) it was 0.637. For the same cell line, the relative viability with Imatinib + Trametinib (first compound 0.6325 µM) worked out at 0.516; with Imatinib + Trametinib (first compound 2 µM) it was 0.634; with Imatinib + Luminespib (first compound 0.02 µM), 0.682; with Imatinib + Luminespib (first compound 0.2 µM) it was 0.575; with Imatinib + Luminespib (first compound 0.6325 µM), 0.58; in the assay with Imatinib + Luminespib (first compound 2 µM), 0.76.

For the cell line NCI-H3122, the relative viability with Imatinib + Crizotinib (first compound 0.02 µM) turned out to be 0.253; in the assay with Imatinib + Crizotinib (first compound 0.06325 µM), 0.292; with Imatinib + Crizotinib (first compound 0.2 µM), 0.324; with Imatinib + Crizotinib (first compound 0.6325 µM) it was 0.313; with Imatinib + Crizotinib (first compound 2 µM), 0.255; with Imatinib + Vorinostat (first compound 0.02 µM), 1.13. The relative viability in the assay with Imatinib + Vorinostat (first compound 0.06325 µM) was found to be 1.01; with Imatinib + Vorinostat (first compound 0.2 µM) it was 1.08; in the assay with Imatinib + Vorinostat (first compound 2 µM), 1.02; with Imatinib + Trametinib (first compound 0.02 µM), 0.25; in the assay with Imatinib + Trametinib (first compound 0.06325 µM), 0.292; in the assay with Imatinib + Trametinib (first compound 0.2 µM), 0.236. Besides, the relative viability with Imatinib + Trametinib (first compound 0.6325 µM) is 0.253; in the assay with Imatinib + Trametinib (first compound 2 µM), 0.216; with Imatinib + Luminespib (first compound 0.02 µM) it was 0.0854; with Imatinib + Luminespib (first compound 0.06325 µM) it was 0.0818; with Imatinib + Luminespib (first compound 0.2 µM), 0.112; in the assay with Imatinib + Luminespib (first compound 0.6325 µM), 0.126. The relative viability with Imatinib + Luminespib (first compound 2 µM) amounted to 0.076.

With PC-3 [JPC-3], the relative viability was 0.979 with Imatinib + Crizotinib (first compound 0.02 µM); 1.02 with Imatinib + Crizotinib (first compound 0.2 µM); 0.921 in the assay with Imatinib + Crizotinib (first compound 0.6325 µM); 0.96 in the assay with Imatinib + Crizotinib (first compound 2 µM); 0.882 with Imatinib + Vorinostat (first compound 0.02 µM); 0.899 with Imatinib + Vorinostat (first compound 0.6325 µM). For the same cell line, the relative viability with Imatinib + Vorinostat (first compound 2 µM) was 0.727; with Imatinib + Trametinib (first compound 0.02 µM), 0.719; with Imatinib + Trametinib (first compound 0.6325 µM), 0.724; with Imatinib + Trametinib (first compound 2 µM) it was 0.621; with Imatinib + Luminespib (first compound 0.02 µM) it was 0.764; in the assay with Imatinib + Luminespib (first compound 0.2 µM) it was 0.705. For the same cell line, the relative viability with Imatinib + Luminespib (first compound 0.6325 µM) stood at 0.704; in the assay with Imatinib + Luminespib (first compound 2 µM) it was 0.734.

For PC-14, the relative viability in the assay with Imatinib + Crizotinib (first compound 0.02 µM) is 1.15; in the assay with Imatinib + Crizotinib (first compound 0.06325 µM), 0.936; with Imatinib + Crizotinib (first compound 0.2 µM) it was 0.935; with Imatinib + Crizotinib (first compound 0.6325 µM), 0.958; in the assay with Imatinib + Crizotinib (first compound 2 µM), 0.848; with Imatinib + Vorinostat (first compound 0.02 µM), 0.902. Besides, the relative viability turned out to be 0.472 in the assay with Imatinib + Vorinostat (first compound 0.06325 µM); 0.8 with Imatinib + Vorinostat (first compound 0.2 µM); 0.56 with Imatinib + Vorinostat (first compound 0.6325 µM); 0.791 in the assay with Imatinib + Vorinostat (first compound 2 µM); 1.01 with Imatinib + Trametinib (first compound 0.02 µM); 1.18 in the assay with Imatinib + Trametinib (first compound 0.06325 µM). The relative viability amounted to 1.11 in the assay with Imatinib + Trametinib (first compound 0.2 µM); 0.765 with Imatinib + Trametinib (first compound 0.6325 µM); 0.897 with Imatinib + Trametinib (first compound 2 µM); 0.16 with Imatinib + Luminespib (first compound 0.02 µM); 0.232 in the assay with Imatinib + Luminespib (first compound 0.2 µM); 0.165 with Imatinib + Luminespib (first compound 2 µM).

With RERF-LC-KJ, the relative viability stood at 0.867 in the assay with Imatinib + Crizotinib (first compound 0.02 µM); 0.885 in the assay with Imatinib + Crizotinib (first compound 0.06325 µM); 0.51 with Imatinib + Crizotinib (first compound 0.2 µM); 0.855 in the assay with Imatinib + Crizotinib (first compound 0.6325 µM); 0.826 with Imatinib + Crizotinib (first compound 2 µM); 0.698 with Imatinib + Vorinostat (first compound 0.02 µM). For the same cell line, the relative viability turned out to be 0.535 with Imatinib + Vorinostat (first compound 0.06325 µM); 0.662 in the assay with Imatinib + Vorinostat (first compound 0.6325 µM); 0.683 with Imatinib + Vorinostat (first compound 2 µM); 0.806 in the assay with Imatinib + Trametinib (first compound 0.02 µM); 0.97 with Imatinib + Trametinib (first compound 0.06325 µM); 0.936 with Imatinib + Trametinib (first compound 0.2 µM). For the same cell line, the relative viability with Imatinib + Trametinib (first compound 0.6325 µM) was determined as 0.909; with Imatinib + Trametinib (first compound 2 µM), 0.771; in the assay with Imatinib + Luminespib (first compound 0.02 µM) it was 1.27; in the assay with Imatinib + Luminespib (first compound 0.06325 µM) it was 1.3; in the assay with Imatinib + Luminespib (first compound 0.2 µM), 1.3; in the assay with Imatinib + Luminespib (first compound 0.6325 µM), 1.03. In addition, in the assay with Imatinib + Luminespib (first compound 2 µM), the relative viability is 1.31.
